{"source": "patent US20250161273A1", "about": "“PHARMACEUTICAL COMPOSITION COMPRISING DIPHENYLDIAZOLE DERIVATIVES AND METHODS OF USE” (MODAG GMBH, priority 2022, published 2025)", "key": {"[1]": {"experiment": "rat formulation study, PK after single oral administration", "type": "in vivo", "details": "Sprague-Dawley, plasma, male rats, 10 mg/kg single oral, read-out: Tmax, all four formulations", "protocol": "A rat study was undertaken to assess the pharmacokinetics of anle138b in male Sprague Dawley rats (n=3/arm) following single oral administration of different formulations of anle138b, as follows, in Table 5.\nMale Sprague Dawley (SD) rats (n=3/formulation) sourced from Charles River Italia were kept for 5 days acclimatization. Feeding regimen was ad libitum except on the day of dosing when the food was supplied 4 hours post dosing, having been removed the evening beforehand. Animals were orally dosed with anle138b (10 mg/kg) formulated as above. An individual serial plasma profile was drawn from each animal over a period of 24 hours after dosing.\nThe dose formulations were administered orally via gastric gavage (2 ml/kg); any remaining formulation after dosing was discarded.\nAfter oral administration, blood samples were collected from the tail vein of each rat at the time-points detailed: Pre dose, 0.5, 1, 2, 4, 6, 8 and 24 hours after dosing […]\nPK profiling was performed by non-compartmental analysis using Phoenix™ WinNonlin. […] The maximum observed peak plasma concentration (Cmax) and the time at which it was observed (Tmax) were determined by inspection of the observed data.\nThe relative bioavailability ([…]) of anle138b between dose formulations was calculated by comparing systemic exposure (AUC0-t), and are reported rounded to at least 2 significant figures. […]"}, "[2]": {"experiment": "phase 1 first-in-human trial, single ascending dose (SAD) PK", "type": "in vivo", "details": "for fold increase in AUC / fold increase in Cmax: SAD; for Tmax / AUC(0-t) / Cmax / half-life: human, plasma; for Cmax: read-out: Cmax (geometric mean); for half-life: read-out: T1/2 (geometric mean) (converted)", "protocol": "Anle138b was studied in a single-centre, double-blind, randomised, placebo-controlled single ascending dose (SAD) and multiple ascending dose (MAD) study in healthy subjects. Eligible participants were randomly assigned (1:1 for sentinel subjects and 1:5 for main group) to placebo or anle138b (dose ranging from 50 mg to 300 mg per day), respectively. In addition, the effect of food on the pharmacokinetics (PK) of anle138b in healthy subjects was examined at doses of 150 mg per day (FES, food effect study). Participants were randomized to treatment sequence (fed→fasted) or (fasted→fed). Treatment for the SAD, MAD and FES arms of the study was administered orally in hard gelatin capsules containing either 10 mg or 30 mg of anle138b with excipient (i.e., lauroyl polyoxyl-32 glycerides) or excipient only. The primary endpoints were safety and tolerability, the secondary endpoint was pharmacokinetics. Data from all randomized individuals were evaluated. [Clinicaltrials.gov-identifier: NCT04208152. EudraCT-number: 2019-004218-33]\nStudy design: A single-centre, double-blind, randomised, placebo-controlled single ascending dose (SAD) and multiple ascending dose (MAD) study of anle138b in doses of up to 300 mg per day in healthy subjects. The effect of food (FES) on the PK of anle138b in healthy subjects was examined using doses of 150 mg. Participants were recruited from Quotient Sciences (the “CRO”, Nottingham, UK) volunteer database. Approvals from the ethical review board and from the Medicines and Healthcare products Regulatory Agency (UK) were obtained. This study was conducted in accordance with the protocol and with the following legislation: The updated version of the international Council for Harmonisation Good Clinical Practice (GCP) including the integrated Addendum E6, the Medicines for Human Use (Clinical Trials) Regulations including amendments No. 1928, 2984 and 941. In addition, the study was performed according to the ethical principles outlined in the World Medical Association Declaration of Helsinki and its amendments. The study data was monitored. An independent study monitor was appointed to verify that the study was conducted in accordance with current GCP, regulatory requirements, the protocol and that the data were authentic, accurate and complete.\nIn SAD, subjects received a single dose of anle138b or placebo after fasting from all food and drink (except water) for a minimum of 8 h prior to dosing. The dosing in the four SAD-cohorts were 50 mg, 100 mg, 200 mg and 300 mg of free anle138b equivalent, QD, cohorts A, B, C and D respectively. In the MAD part, participants received anle138b or placebo once daily (QD) for 7 days after fasting from all food and drink (except water) for a minimum of 8 h prior to dosing. The dosing in the three MAD-cohorts was 100 mg, 200 mg and 300 mg of free anle138b equivalent, cohorts AM, BM and CM, respectively. Post dosing mouth and hand checks were conducted to ensure the capsules were swallowed. In-study decisions were made by the safety advisory committee (SAC) comprising the principal investigator, the sponsor's medical monitor and a PK expert. For dose escalation to proceed, data needed to be available from a minimum of 6 subjects per cohort with completed per protocol safety and PK assessments up to 48 h after dosing to ensure at least 4 subjects had received active IMP. The decision to proceed to the next higher dose level was based on safety, tolerability and available PK data to 48 h post-administration. The following data were analyzed: Adverse events, vital signs, safety laboratory, ECG, physical examinations, plasma concentrations of anle138b with interim PK parameter estimations (Tmax, Cmax, AUC0-24, AUC0-tau, AUC0-last and T½, where applicable). Data were provided to the SAC in accordance with CRO standard operating procedure (SOP) on interim dose decision-making and dose escalation. […]"}, "[3]": {"test_system": "monomer", "details": "cited from earlier work"}, "[4]": {"details": "1.5-fold increase in dose from 200 mg to 300 mg"}, "[5]": {"details": "2-fold increase in dose from 50 mg to 100 mg"}, "[6]": {"details": "2-fold increase in dose from 100 mg to 200 mg"}, "[7]": {"details": "po, 50 mg, healthy volunteers, fasted, single oral 50 mg"}, "[8]": {"details": "po, 100 mg, healthy volunteers, fasted, single oral 100 mg"}, "[9]": {"details": "po, 200 mg, healthy volunteers, fasted, single oral 200 mg"}, "[10]": {"details": "po, 300 mg, healthy volunteers, fasted, single oral 300 mg"}}, "note": "Where two headings read alike, the source gives them in different places."}
{"smiles": "Brc1cccc(-c2cc(-c3ccc4c(c3)OCO4)n[nH]2)c1", "note": "[anle138b, 3-(1,3-benzodioxol-5-yl)-5-(3-bromophenyl)-1H-pyrazole]", "values": [{"measurement": "Tmax", "setting": "[1]", "value": "2 to 8", "unit": "h"}, {"measurement": "fold increase in AUC", "setting": "[2]; [4]", "value": "~1.5", "unit": "fold"}, {"measurement": "fold increase in Cmax", "setting": "[2]; [4]", "value": "~1.5", "unit": "fold"}, {"measurement": "fold increase in AUC", "setting": "[2]; [5]", "value": "~3.3", "unit": "fold"}, {"measurement": "fold increase in Cmax", "setting": "[2]; [5]", "value": "~2.9", "unit": "fold"}, {"measurement": "fold increase in AUC", "setting": "[2]; [6]", "value": "~3.0", "unit": "fold"}, {"measurement": "fold increase in Cmax", "setting": "[2]; [6]", "value": "~2.9", "unit": "fold"}, {"measurement": "practical terminal elimination half-time", "setting": "[2]; healthy volunteers, overall", "value": "~12", "unit": "h"}, {"measurement": "Tmax", "setting": "[2]; oral, healthy volunteers, single dose 50-300 mg, post-administration, read-out: median Tmax, all SAD cohorts", "value": "1 to 1.5", "unit": "h"}, {"measurement": "Tmax", "setting": "[2]; po, 50 mg, healthy volunteers, fasted, single oral 50 mg (Cohort A), read-out: Tmax (median)", "value": 1, "unit": "h"}, {"measurement": "Tmax", "setting": "[2]; po, 50 mg, healthy volunteers, fasted, single oral 50 mg (Cohort A), read-out: Tmax (range)", "value": "0.5 to 2", "unit": "h"}, {"measurement": "AUC(0-t)", "setting": "[2]; po, 50 mg, healthy volunteers, fasted, single oral 50 mg, read-out: AUC(0-24) (geometric mean)", "value": "~113", "unit": "ng·h/mL"}, {"measurement": "AUC(0-t)", "setting": "[2]; po, 50 mg, healthy volunteers, fasted, single oral 50 mg, read-out: AUC(0-last) (geometric mean)", "value": 109, "unit": "ng·h/mL"}, {"measurement": "Cmax", "setting": "[2]; [7]", "value": "~54.3", "unit": "ng/mL"}, {"measurement": "half-life", "setting": "[2]; [7]", "value": 3.9, "unit": "h"}, {"measurement": "Tmax", "setting": "[2]; po, 100 mg, healthy volunteers, fasted, single oral 100 mg (Cohort B), read-out: Tmax (median)", "value": 1.5, "unit": "h"}, {"measurement": "Tmax", "setting": "[2]; po, 100 mg, healthy volunteers, fasted, single oral 100 mg (Cohort B), read-out: Tmax (range)", "value": "0.5 to 2", "unit": "h"}, {"measurement": "AUC(0-t)", "setting": "[2]; po, 100 mg, healthy volunteers, fasted, single oral 100 mg, read-out: AUC(0-24) (geometric mean)", "value": "> 300", "unit": "ng·h/mL"}, {"measurement": "AUC(0-t)", "setting": "[2]; po, 100 mg, healthy volunteers, fasted, single oral 100 mg, read-out: AUC(0-last) (geometric mean)", "value": 372, "unit": "ng·h/mL"}, {"measurement": "Cmax", "setting": "[2]; [8]", "value": "~156", "unit": "ng/mL"}, {"measurement": "half-life", "setting": "[2]; [8]", "value": 10.8, "unit": "h"}, {"measurement": "Tmax", "setting": "[2]; po, 200 mg, healthy volunteers, fasted, single oral 200 mg (Cohort C), read-out: Tmax (median)", "value": 1.5, "unit": "h"}, {"measurement": "Tmax", "setting": "[2]; po, 200 mg, healthy volunteers, fasted, single oral 200 mg (Cohort C), read-out: Tmax (range)", "value": "1 to 2", "unit": "h"}, {"measurement": "AUC(0-t)", "setting": "[2]; po, 200 mg, healthy volunteers, fasted, single oral 200 mg, read-out: AUC(0-24) (geometric mean)", "value": "~1090", "unit": "ng·h/mL"}, {"measurement": "AUC(0-t)", "setting": "[2]; po, 200 mg, healthy volunteers, fasted, single oral 200 mg, read-out: AUC(0-last) (geometric mean)", "value": 1130, "unit": "ng·h/mL"}, {"measurement": "Cmax", "setting": "[2]; [9]", "value": "~458", "unit": "ng/mL"}, {"measurement": "half-life", "setting": "[2]; [9]", "value": 12.8, "unit": "h"}, {"measurement": "Tmax", "setting": "[2]; po, 300 mg, healthy volunteers, fasted, single oral 300 mg (Cohort D), read-out: Tmax (median)", "value": 1.5, "unit": "h"}, {"measurement": "Tmax", "setting": "[2]; po, 300 mg, healthy volunteers, fasted, single oral 300 mg (Cohort D), read-out: Tmax (range)", "value": "1.5 to 2", "unit": "h"}, {"measurement": "AUC(0-t)", "setting": "[2]; po, 300 mg, healthy volunteers, fasted, single oral 300 mg, read-out: AUC(0-24) (geometric mean)", "value": "~1650", "unit": "ng·h/mL"}, {"measurement": "AUC(0-t)", "setting": "[2]; po, 300 mg, healthy volunteers, fasted, single oral 300 mg, read-out: AUC(0-last) (geometric mean)", "value": 1720, "unit": "ng·h/mL"}, {"measurement": "Cmax", "setting": "[2]; [10]", "value": "~704", "unit": "ng/mL"}, {"measurement": "half-life", "setting": "[2]; [10]", "value": 16.2, "unit": "h"}, {"measurement": "binding to the monomer (in words)", "setting": "[3]", "value": "does not bind to the monomer"}]}
